From patent US20190282616A1, “MACROPHAGES REDIRECT PHAGOCYTOSIS BY NON-PROFESSIONAL PHAGOCYTES AND INFLUENCE INFLAMMATION” (University of Virginia Patent Foundation, priority 2016, published 2019)

Tests used:
[1] = test system: resident peritoneal macrophages; test: Liposome uptake by resident peritoneal macrophages; assay type: cell-based, mouse; details: exposed to IGF-1 vs control
Procedure: (§1) To obtain bone-marrow derived macrophages, femurs were removed from 8 week old mice and flushed with 5 mL of sterile PBS containing 5% FBS. The cell suspension was centrifuged, treated with red blood cell lysis buffer, washed, and then plated onto sterile petri dishes in DMEM containing 10% L929 media, 10% FBS and 1% penicillin/streptomycin/glutamine (PSQ). Media was replenished every 2 to 3 days and differentiated cells were used at day 6 post-harvest. Resident peritoneal macrophages were obtained by flushing the peritoneal cavity of mice with 10 mL of cold PBS containing 5% FBS. Collected cells were spun down, resuspended in X-VIVO 10 (Lonza) and plated at a concentration of 3×10^5 cells per well in a 24 well plate for IGF-1 secretion assays, and 5×10^5 per well in a 24 well plate for engulfment assays. Floating cells were washed the next day and remaining peritoneal macrophages were used 2 days after isolation. Alveolar macrophages were isolated by flushing the lungs with 1 mL of cold PBS instilled intratracheally (five flushes). Collected cells were centrifuged, resuspended in F12K media containing 10% FBS and 1% PSQ, and seeded at 1×10^5 cells per well in a 48-well plate. All floating cells were washed away the next day and remaining cells were used in assays 2 days after isolation.

IC-21 cells = test: Apoptotic thymocyte engulfment by IC-21 cells; assay type: cell-based; details: indicated concentrations of mouse IGF-1 or human insulin
BEAS-2B cells [2] = test: Uptake of alveolar macrophage derived microvesicles by BEAS-2B cells; assay type: cell-based, human; details: IGF-1 100 ng/mL
Procedure: MH-S, mouse alveolar macrophages, or primary mouse alveolar macrophages were seeded. After adherence, the media was replaced with 0.22 μm filtered media to remove any contaminating microvesicles. After an overnight incubation, the supernatant was harvested and spun at 5000×g to remove cell debris and apoptotic bodies. The pellet was discarded and the resulting supernatant was filtered through 0.8 μm filter and spun again at 17,000×g. The pelleted microvesicles were then washed with HBSS and then spun again at 17,000×g. For engulfment assays, microvesicles were stained with TAMRA for 20 minutes and then added to BEAS-2B cells for 90 minutes. For flow cytometry, purified particles were stained with CD11c, Siglec F, and Annexin V (BD Biosciences, Cat. No. 550475) and processed on Imagestream™ imaging flow cytometer (Amnis). Microvesicle size distribution was characterized using qNano (IZON Science) with a NP400 membrane and at least 500 particles were counted. Microvesicles were prepared for cryo-electron microscopy using standard methods and imaged on an FEI TF20.

[3] = test system: IGF-1R, Akt and Erk1/2 phosphorylation in LR73 cells; test: Immunoblotting of signaling in LR73 cells; assay type: cell-based, hamster; details: LR73 cells, IGF-1 treatment
Procedure: LR73, J774, or BEAS-2B cells were seeded in a 60 mm dish at a concentration of 5×10^5. […] Cells were lysed in RIPA buffer and used in Western blots. The blots were probed for phospho-Erk1/2 (Cell Signaling Technology, #4370), phospho-Akt (Cell Signaling Technology, #4060), phospho-IGF-1R (Cell Signaling, #3024), total Erk2 (Santa Cruz Biotechnology, #sc-154-G), total Akt (Cell Signaling Technology, #4691), total IGF-1R (Cell Signaling, #9750), and anti-B-actin-HRP (Sigma-Aldrich, #A3854) followed by chemiluminescence detection.

[4] = test system: resident peritoneal macrophages; test: Apoptotic cell engulfment by resident peritoneal macrophages; assay type: cell-based, mouse; details: even with supra-physiological concentrations of IGF-1
Procedure: as §1

[5] = test system: SVEC-40 endothelial cells; test: In vitro engulfment assay: apoptotic thymocyte uptake by SVEC-40 cells; assay type: cell-based, mouse; details: IGF-1 treatment
Procedure: (§2) LR73, SVEC-40, BEAS-2B, and 16HBE14o-cells were seeded in a 24 well plate. Thymocytes were isolated from 4-6 week old mice and induced to undergo apoptosis with dexamethasone. Thymocytes or prepared microvesicles were then stained with either CypHer5E (GE Healthcare, PA15401) or TAMRA (Invitrogen, C-1171). LR73 and SVEC-40 cells were incubated with apoptotic thymocytes at a 1:10 phagocyte to target ratio, BEAS-2B at a 1:5 phagocyte to target ratio, and 16HBE14o—at a 1:20 phagocyte to target ratio for 2 hours. Mouse IGF-I (Sigma-Aldrich), human IGF-I (Sigma-Aldrich), human IGF-II (Sigma-Aldrich) were added to the phagocytes at the same time as addition of apoptotic targets. For IGFBP3 studies, IGFBP3 (Sigma-Aldrich) was added to media or supernatant from J774 cells for one hour to allow IGFBP3 to bind to any available IGF-I, then the mix is added to phagocytes along with apoptotic targets. […] Targets were then washed off three times with PBS, and the cells were dissociated from the plate with trypsin and the engulfment assessed by flow cytometry.

[6] = test system: bone marrow derived macrophages; test: Apoptotic cell engulfment by bone marrow derived macrophages; assay type: cell-based, mouse; details: even with supra-physiological concentrations of IGF-1
Procedure: as §1

BEAS-2B cells [7] = test: In vitro engulfment assay: apoptotic cell uptake by BEAS-2B cells; assay type: cell-based; details: human IGF-I
Procedure: as §2

[8] = test system: IGF-1R and Akt phosphorylation in macrophages; test: Immunoblotting of IGF-1R and Akt phosphorylation in macrophages; assay type: cell-based; details: 100 ng/mL mouse IGF-1
Procedure: LR73, J774, or BEAS-2B cells were seeded in a 60 mm dish at a concentration of 5×10^5. Cells were serum-starved for 6 hours and then stimulated with 100 ng/mL of IGF-1 for various time points. Cells were lysed in RIPA buffer and used in Western blots. The blots were probed for phospho-Erk1/2 (Cell Signaling Technology, #4370), phospho-Akt (Cell Signaling Technology, #4060), phospho-IGF-1R (Cell Signaling, #3024), total Erk2 (Santa Cruz Biotechnology, #sc-154-G), total Akt (Cell Signaling Technology, #4691), total IGF-1R (Cell Signaling, #9750), and anti-B-actin-HRP (Sigma-Aldrich, #A3854) followed by chemiluminescence detection.

[9] = test system: phosphatidylserine (PtdSer) on apoptotic thymocytes; test: Annexin V binding to apoptotic thymocytes; assay type: cell-based, mouse; details: n=6

## insulin-like growth factor I [IGF-1]
[1]
  liposome uptake by peritoneal macrophages: comparable liposome uptake as control treated cells
IC-21 cells
  corpse uptake by IC-21 cells: did not affect corpse uptake
BEAS-2B cells [2]
  uptake of microvesicles by BEAS-2B airway epithelial cells: enhanced by IGF-1
[3]
  phosphorylation of Akt: elicited phosphorylation of Akt
[4]
  corpse uptake by resident peritoneal macrophages: did not affect corpse uptake
[5]
  apoptotic thymocyte uptake by SVEC-40 cells: engulfment dampening effect of IGF-1 was also seen
[6]
  corpse uptake by bone marrow-derived macrophages: did not affect corpse uptake
BEAS-2B cells [7]
  apoptotic cell uptake by BEAS-2B cells: engulfment dampening effect of IGF-1 was also seen
[8]
  early signaling in macrophages (IGF-1R and Akt phosphorylation): initiated early signaling in macrophages
[9]
  masking of phosphatidylserine on apoptotic cells (Annexin V binding): not due to masking phosphatidylserine
